Results on seven compounds are retold here after ChEMBL document CHEMBL3797023, “Irregularities in enzyme assays: The case of macrophage migration inhibitory factor” (Bioorg Med Chem Lett, 2016).

The structures appear in SMILES notation. ≈ marks a conversion by molar mass, not a printed value.

A short description of this series: Aqueous solubility of compound at pH 6.5 by shake-flask method. The series is classed as physicochemical. Particulars: aqueous medium.
Broadly, the solubility (thermodynamic) is the concentration in solution at equilibrium with solid. As for `Cc1ccc2oc(=O)n(Cc3cccc(O)c3)c2c1`, the solubility (thermodynamic) was 21.9 µg/mL (≈ 85.8 µM).

Take `O=C(O)c1cccc(NC(=S)NC(=O)c2ccc(-c3ccccc3)cc2)c1`: the thermodynamic solubility was less than 1 µg/mL.

In turn, `COc1cc(-c2nc3ccccc3s2)cc(Br)c1OCC(=O)O` had a solubility (thermodynamic) of 6 µg/mL (≈ 15.2 µM).

Consider `COc1ccc(C(=O)O)cc1NC(=S)NC(=O)c1cc2ccccc2o1`, for which the solubility (thermodynamic) was less than 5 µg/mL.

`Oc1cc2c(cc1C(c1ccc(C(F)(F)F)cc1)N1CCOCC1)OCO2` (configuration not stated) gave a solubility (thermodynamic) of 27.6 µg/mL (≈ 72.4 µM).

`COCCOc1ccc2nc(-c3cn(-c4ccc(O)cc4)nn3)ccc2c1` yielded a solubility (thermodynamic) of 3.6 µg/mL (≈ 9.93 µM).

The compound `Oc1ccc(-n2cc(-c3ccc4cc(OCCOCCN5CCOCC5)ccc4n3)nn2)cc1` gave a thermodynamic solubility of 48.5 µg/mL (≈ 105 µM).
